# Test results reported in a melting point compilation (Tetko et al.; mined from patent text by program, amines drawn as free bases though some values may be those of a salt).
row,SMILES,melting point [°C]
1,COc1cc(N2CCC(N3CCCOCC3)CC2)ccc1Nc1ncc2ccc(-c3ccccc3OC)n2n1,75 to 82
2,CC1(c2cccc(Cl)c2)OC(C(=O)O)Oc2ccc(Cl)cc21 (configuration not stated),131
3,CCC(C(=O)O)c1ccccc1Br (configuration not stated),37 to 39
4,COc1cc(C(=O)N(C(C)C)C2CCCCC2)ccc1Cn1c(CN(C)C)nc2ncccc21,141 to 142
5,O=C(c1ccc(NC(=O)C(O)(C(F)(F)F)C(F)(F)F)cc1)c1ccccn1,197 to 200
6,COc1cc([N+](=O)[O-])c2ncccc2c1Cl,204 to 206
7,CCCCCCc1ccc(N2C=CC(=C=C3C(C#N)C(=C(C#N)C#N)OC3(C)C)C=C2)cc1 (configuration not stated),193
8,Cc1nc(Cl)c2c(C)c(C)n(-c3c(C)cc(C)c4nsnc34)c2n1,169 to 171
9,O=C(OCc1ccccc1)[C@@H](CC1=CCCC1)OS(=O)(=O)c1ccccc1[N+](=O)[O-],122 to 124
10,O=C1CSC(=S)N1C(=O)Nc1ccc2nc(S)sc2c1,212 to 217
11,CN1Cc2c([N+](=O)[O-])ncn2-c2ccccc2C1=O,227 to 229
12,CC(C)(C)CNc1nc(N2CCCC2)cc(N2CCNCC2)n1,118 to 120
13,CC(C)(C(N)=O)c1nnc2ccc(OCCCN3CCC(OC(c4ccccc4)c4ccccc4)CC3)nn12,133 to 136
14,N#Cc1ccccc1-c1ccc2cc(CBr)ccc2c1,171 to 172
15,CCc1ccc(C(=O)c2ccccc2C(=O)O)c(CC)c1,115 to 118
16,O=c1[nH]c(=O)n2c(c1Cc1ccccc1)SCCC2,227 to 229

row,SMILES,melting point [°C]
1,COc1ccc2c(c1)OC(C#N)=CO2,92
2,CNc1ncn(-c2ccccc2C)c(=O)n1,192
3,CN(CCCCOc1ccc(CC2SC(=O)NC2=O)cc1)c1nc2ccccc2o1 (configuration not stated),112
4,Cc1cnc(-c2ccncc2)nc1N,210 to 213
5,CN(C)CC(O)Cn1c2ccccc2c2c3c(c4c5ccccc5n(C)c4c21)C(=O)NC3=O (configuration not stated),130 to 135
6,CCCCCCCCCCCCNC1=NC(C)(C)N=C(NCc2ccc(S(N)(=O)=O)cc2)N1,188 to 191
7,CC12CCC=CC1=CCC1C2CCC2(C)C(OS(=O)(=O)C(F)(F)F)=CCC12 (configuration not stated),75 to 76
8,CCc1ccc2cc[nH]c2n1,117 to 120
9,CC(C)(C)c1ccc(-c2nc(NC(=O)c3ccccc3)sc2-c2ccncc2)cc1,292 to 294
10,C#CCCCCCCCCOc1cccc(C(N)=O)c1,111 to 112
11,COc1ccc2cccc3c2c1C(CCNC(C)=O)CC3 (configuration not stated),98
12,CN(C)n1c(C(F)(F)F)n[nH]c1=O,138
13,CSc1nc(Cl)c2sccc2n1,115 to 118
14,COc1ccc(C(=O)O)cc1Oc1ccc(C(F)(F)F)cc1Cl,162 to 165
15,CCCOc1ccc(OC)cc1-c1ncc(C(N)=O)c(=O)[nH]1,206 to 207
16,Cc1nnc2nc(-c3cccc(C(F)(F)F)c3)cnn12,230 to 233

# Now from value to compound:
row,melting point [°C],SMILES
1,118 to 120,O=C(Oc1ccc([N+](=O)[O-])cc1)OC1CCN(C(=O)OCc2ccccc2)CC1
2,154 to 155,O=C(NCc1ccc2c(c1)OCO2)c1ccc2n1Cc1ccccc1N(C(=O)CSc1ccc(Br)cc1)C2
3,134 to 138,COc1c(S(=O)(=O)N2CCC[C@H]2C(=O)O)ccc(Cl)c1COc1cccc2c(C)cc(C)nc12
4,231 to 232,O=C(c1ccc(Cl)cc1Cl)N1CCC(=NO)c2ccc(Cl)cc21
5,192 to 195,CCCc1cn(-c2cc(=O)n(-c3ccccc3)nc2C#N)nn1
6,79 to 80,COc1ccc(COc2cccc(C#CC(=O)c3ccccc3)c2)cc1
7,76 to 78,N#CCCCc1ccc2ccccc2c1O
8,91 to 92,CCS(=O)(=O)N1CCN(C(=O)OC2CCC3(CO3)C(C3(C)OC3CC=C(C)C)C2OC)CC1 (configuration not stated)
9,235 to 240,CCOC(=O)Cc1c[nH]c2nc(Nc3ccc(OC(C)C)cc3)nn2c1=O
10,122 to 124,O=C(N[C@H]1CCN(CCc2ccc(F)cc2)C1)C(C1CCCCC1)C1CCCCC1
11,183 to 188,Cn1cc(CN2CCN(CCOc3ccc(C=C4SC(=O)NC4=O)cc3)CC2)c2ccccc21
12,205,Clc1ccc(Cl)c(CN2CCNc3ncc(-c4ccc(Cl)nc4)cc32)c1
13,190 to 192,O=C(Nc1c(C(O)(C(F)(F)F)C(F)(F)F)ccc2ccccc12)c1ccccc1
14,215 to 216,O=C1CCCC2=C1C(c1cccc([N+](=O)[O-])c1)C=C(C(F)(F)F)N2 (configuration not stated)
15,76 to 77,c1csc(-c2nc(COc3ccc(CCCn4ccnc4)cc3)cs2)c1
16,199 to 200,NS(=O)(=O)c1cc(C(=O)O)cc(OCc2ccccc2)c1-c1ccccc1
17,152 to 156,COc1ccc(-n2nnc(-c3ccc(F)cc3F)c2N)cc1
18,91 to 93,CCCCCCCCCCCCCCCCNC(=O)c1cc(OCCSCC(=O)O)c2ccccc2c1O
19,115 to 117,COC(=O)c1cccc(-c2nc(C(Cl)(Cl)Cl)nc(C(Cl)(Cl)Cl)n2)c1
20,82 to 84,CCOC(=O)c1cnoc1-c1ccc(Cl)cc1Cl

row,melting point [°C],SMILES
1,133 to 135,COC(=O)c1ccc(C(=O)c2ccccc2)cc1
2,275,NC(C(=O)O)c1ccc(C=CC2CC2)[nH]1 (configuration not stated)
3,186 to 187,Cc1ccc(C(=O)NNc2ccc(NC(=S)Nc3ccccc3)cc2)cc1
4,180,CCOC(=O)CCCCOc1ccc2c(c1)CC1CC(=O)NC1=N2 (configuration not stated)
5,248,COc1cc(C)nc(-n2nc(C)n(NS(=O)(=O)c3ccccc3OC(F)(F)F)c2=O)n1
6,185 to 188,CO[C@@H]1CN(c2ccc3c(=O)c(C(=O)O)cn(-c4nccs4)c3n2)C[C@H]1NCC(=O)OC(C)(C)C (relative stereo)
7,127 to 128,O=C(C1=Cc2ccccc2Oc2ccccc21)N1CCCCC1
8,172 to 173,C[C@@H](c1ccc(C(=O)N(C)NC(N)=S)cc1)[C@](O)(Cn1cncn1)c1ccc(F)cc1F
9,158 to 160,O=c1cc(NCCCN2CCN(c3cccc4c3OCCO4)CC2)cn[nH]1
10,109 to 111,Cc1cnc(Br)c(C#N)c1
11,44 to 47,CCCCCCCCCCCCCCCC(=O)OC(COCc1ccc(OC)cc1)COC(=O)CCCCCCCCCCCNC(=O)OCc1ccccc1 (configuration not stated)
12,200 to 202,O=C(O)[C@H](Cc1ccccc1)NC(=O)[C@@H]1CCCN1C(=O)c1ccccc1
13,218 to 220,COc1ccc(-c2cc3nc(N4CCOCC4)c4ccccc4c3nn2)cc1
14,41,N#CC(=O)c1ccccc1CF
15,131 to 132,O=C(O)CCOc1ccc2c(c1)CCO2
16,273 to 275,Cc1c(-c2cccnc2)n(Cc2ccc(C(=O)O)cc2)c2ccccc12
17,251 to 252,CNC(=O)c1cc(OC)c(-c2ccc(C[C@H](NC(=O)c3c(Cl)cccc3Cl)C(=O)O)cc2)c(OC)c1
18,108 to 109,Cc1c(C(C)F)nc[nH]c1=O (configuration not stated)
19,154 to 155,ON=Cc1ccc2c(c1)ncn2-c1cccc(COCc2ccccn2)c1
20,147 to 148,COc1ccc(N2CCN(c3c(C)c(C)c4c(c3C)C(c3ccc(OC(F)(F)F)cc3)C(C)(C)O4)CC2)cc1 (configuration not stated)
